Measurements reported in US7732504B2, “Functionalized photoinitiators” (Ciba Specialty Chemicals Corporation, priority 2004, dated 2010).

Legend:
[1] = Solubility of the initiator in the blue offset printing ink formulation; assay type: physicochemical; parameters: key: good (+); acceptable (±); bad (−)
Description: (§1) A photocurable blue offset printing ink is prepared in accordance with the following formulation: […]
18.3 g of Ebecryl® 1608 (UCB, Belgium)
18.3 g of Ebecryl® 657 (polyester acrylate from UCB, Belgium)
20.0 g of Ebecryl® 220 (urethane acrylate from UCB, Belgium)
20.9 g of Ebecryl® 150 (bisphenol A derivative diacrylate from UCB, Belgium)
22.5 g Irgalit blue GLO (Cu-phthalocyanine pigment from Ciba Specialty Chemicals)
(§2) The above components are grounded down to a stock paste. Portions of the stock paste are mixed with the photoinitiators indicated in the table (% by weight on the stock paste). The solubility of the initiator in the formulation is rated as good (+), acceptable (±) or bad (−) and the results shown in Table 1.

[2] = Curing of a blue offset printing ink on white paper (maximum rate of passage, 80 W/cm mercury lamp); settings: for curing rate (m/min) for surface cure / curing rate (m/min) for through cure: blue offset ink 1.5 g/m^2 on white paper, 80 W/cm mercury lamp
Description: Curing of a Blue Offset Printing Ink on White Paper
as §1, §2
The blue printing ink thus obtained is applied with 1.5 g/m^2 (˜1.5 μm thickness) on white paper using a Prüfbau laboratory printing equipment. The samples are exposed in an irradiation apparatus with a 80 W/cm mercury lamp (IST). The rate of passage of the sample through the irradiation apparatus is thereby increased continuously until adequate curing no longer occurs. The odor of the cured film is rated on a scale from 1 (odorless) to 3 (strong odor).

[3] = Solubility of the initiator in the blue flexo printing ink formulation; assay type: physicochemical; parameters: key: good (+); acceptable (±); bad (−); settings: photoinitiator conc 6.0 % by weight on the stock paste
Description: (§3) A photocurable blue flexo printing ink is prepared in accordance with the following formulation: […]
26.9 g of IRR 440 (flexo basic resin)
19.0 g of OTA 480 (acrylated trifunctional resin, UCB, Belgium)
18.0 g of Ebecryl® 645 (modified diacrylate of Bisphenol A epoxy resin diluted with 25% of TPGDA, from UCB, Belgium)
13.0 g of HDDA (1,6-hexanediol diacrylate)
10.0 g of Ebecryl® 220 (urethane acrylate from UCB, Belgium)
1.3 g of Ebecryl® 168 (methacrylated acidic compound from UCB, Belgium)
0.7 g of DC 57 (Leveling agent)
11.1 g Irgalit blue GLO (Cu-phthalocyanine pigment from Ciba Specialty Chemicals)
as §2, with “2.” for “1.”

[4] = Curing of a blue flexo printing ink on a white polyethylene foil (maximum rate of passage, 120 W/cm mercury lamp); settings: conc 6.0 %, blue flexo ink on corona treated white polyethylene foil
Description: Curing of a Blue Flexo Printing Ink on a White Polyethylene Foil
as §3
as §2, with “2.” for “1.”
The blue printing ink thus obtained is applied with […] 1.5 μm thickness on a corona treated white polyethylene foil using a Prüfbau laboratory printing equipment. The samples are exposed in an irradiation apparatus with a 120 W/cm mercury lamp (IST). The rate of passage of the sample through the irradiation apparatus is thereby increased continuously until adequate curing no longer occurs. The adhesion of the cured film to the foil is measure by the Tesa tape test.

[5] = photoinitiator conc 3.0 % by weight on the stock paste
[6] = photoinitiator conc 4.0 % by weight on the stock paste

With `CCCC(CC)(C(=O)c1ccc(NCCO)cc1)N(C)C` (stereo not shown) the melting point was 74 to 77 °C.
In the case of `CCC(Cc1ccccc1)(C(=O)c1ccc(NCCO)cc1)N(C)C` (stereo not shown) [Example 1, 2-benzyl-1-[4-(2-hydroxyethylamino)phenyl]-2-dimethylamino-1-butanone], the solubility [1, 5] is reported as “+”, the solubility [1, 6] is reported as “+” and the “efficiency as a photoinitiator compared with the reference compounds” value ([2]; blue offset printing ink, versus Irgacure 369 and Irgacure 907) is reported as “more efficient as a photoinitiator than the reference compounds”. For the same molecule, the “curing rate (m/min) for surface cure” value ([2]; conc 3.0 %) was 100 m/min, the “curing rate (m/min) for through cure” value ([2]; conc 3.0 %) was 120 m/min and the “curing rate (m/min) for surface cure” value ([2]; conc 4.0 %) was 140 m/min. The “curing rate (m/min) for through cure” value ([2]; conc 4.0 %) was 170 m/min, the solubility [3] was “+” and the “curing rate (m/min) for surface cure” value [4] was 200 m/min. The “curing rate (m/min) for through cure” value [4] was 40 m/min and the melting point was 109 to 111 °C.
With `CC(C)(C(=O)c1ccc(NCCO)cc1)N1CCOCC1` [Example 6, 1-[4-(2-hydroxyethyamino)phenyl]-2-methyl-2-(morpholin-4-yl)-1-propanone] the melting point was 77 to 78 °C.
For `CCC(Cc1ccccc1)(C(=O)c1ccc(N2CCOCC2)cc1)N(C)C` (stereo not shown) [Irgacure 369, 2-benzyl-2-(dimethylamino)-1-[4-(4-morpholinyl)phenyl]-1-butanone], the solubility [1, 5] was “−”, the solubility [1, 6] was “−” and the “curing rate (m/min) for surface cure” value ([2]; conc 3.0 %) was 70 m/min. The “curing rate (m/min) for through cure” value ([2]; conc 3.0 %) was 110 m/min, the “curing rate (m/min) for surface cure” value ([2]; conc 4.0 %) was 90 m/min and the “curing rate (m/min) for through cure” value ([2]; conc 4.0 %) was 130 m/min. For the same molecule, the solubility [3] was “+”, the “curing rate (m/min) for surface cure” value [4] was 170 m/min and the “curing rate (m/min) for through cure” value [4] was 90 m/min.
With `CSc1ccc(C(=O)C(C)(C)N2CCOCC2)cc1` [Irgacure 907] the solubility [1, 6] was “+”, the “curing rate (m/min) for surface cure” value ([2]; conc 4.0 %) was 80 m/min and the “curing rate (m/min) for through cure” value ([2]; conc 4.0 %) was 90 m/min.
